Experimental data taken from PMC9090415, “Discovery of small molecule inhibitors of Plasmodium falciparum apicoplast DNA polymerase” (Journal of Enzyme Inhibition and Medicinal Chemistry, 2022).

Biological target: P. falciparum apicoplast DNA polymerase (Pf-apPOL) (Plasmodium falciparum, UniProt Q8ILY1)
Experiment: Fluorescence-based high-throughput DNA polymerase assay (molecular beacon), primary screen and dose-response;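 for % inhibition ApPOL 90': test concentration in µM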;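 for % inhibition Apol 40': compound concentration given in µM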;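 for % inhibition apPOL 180': test concentration in µM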
Type: biochemical
Settings: for DNA Pol: 90 min, 10 µM
Method in brief: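 Single-point screening used 10 µM compound with 20 nM polymerase, 20 nM hairpin substrate and 6 µM dNTPs for 90 min at 25 °C. Confirmatory titrations (2.5–80 µM) followed fluorescence at three times, and IC50 was derived from a fit including a cooperativity term n.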

[1] = 'DNA Pol' of the 186 hits list (primary screen value)
[2] = first dose-response set, concentration 10

Sequence of P. falciparum apicoplast DNA polymerase (Pf-apPOL) (Q8ILY1 entry or part of it): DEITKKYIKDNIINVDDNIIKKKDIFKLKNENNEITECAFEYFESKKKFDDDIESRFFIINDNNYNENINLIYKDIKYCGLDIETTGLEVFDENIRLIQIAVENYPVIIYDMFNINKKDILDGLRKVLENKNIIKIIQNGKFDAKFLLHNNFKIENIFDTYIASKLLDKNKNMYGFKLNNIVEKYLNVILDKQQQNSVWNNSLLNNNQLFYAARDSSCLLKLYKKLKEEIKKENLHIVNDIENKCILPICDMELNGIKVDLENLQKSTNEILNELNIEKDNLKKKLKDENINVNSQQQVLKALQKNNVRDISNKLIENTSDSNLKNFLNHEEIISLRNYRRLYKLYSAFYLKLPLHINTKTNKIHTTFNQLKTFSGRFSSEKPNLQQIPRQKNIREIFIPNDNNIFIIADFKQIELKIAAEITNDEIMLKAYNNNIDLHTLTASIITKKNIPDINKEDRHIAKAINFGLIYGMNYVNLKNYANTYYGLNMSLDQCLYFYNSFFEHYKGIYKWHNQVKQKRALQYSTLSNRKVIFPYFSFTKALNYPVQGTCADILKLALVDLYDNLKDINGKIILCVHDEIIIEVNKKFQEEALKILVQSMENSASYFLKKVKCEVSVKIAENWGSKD

**Q.** What does the source list for `O=C(NNC(=O)c1ccc(Cl)cc1)C(=O)NNC(=O)c1ccc(Cl)cc1` [Molecule 25, O=C(C(=O)NNC(=O)c1ccc(cc1)Cl)NNC(=O)c1ccc(cc1)Cl]?
**A.** DNA Pol [1]: 75; DNA Pol (DNA Pol (primary screen value)): 75; % inhibition Apo pol 10' (DRC-1, concentration 2.5): 0.1123%; % inhibition Apo pol 10' (DRC-1, concentration 5): 29.8674%; % inhibition Apo pol 10' (DRC-1, concentration 10): 53.2072%; % inhibition Apo pol 10' (DRC-1, concentration 20): 61.5061%; % inhibition Apo pol 10' (DRC-1, concentration 40): 64.1413%; % inhibition Apo pol 10' (DRC-1, concentration 80): 75.0048%; % inhibition Apol 90' (DRC-1, concentration 2.5): -1.798%; % inhibition Apol 90' (DRC-1, concentration 5): 28.7698%; % inhibition Apol 90' (DRC-1, concentration 10): 48.8169%; % inhibition Apol 90' (DRC-1, concentration 20): 54.9619%; % inhibition Apol 90' (DRC-1, concentration 40): 57.5316%; % inhibition Apol 90' (DRC-1, concentration 80): 69.6376%; % inhibition apPOL 180' (DRC-1, concentration 2.5): -4.906%; % inhibition apPOL 180' (DRC-1, concentration 5): 25.5591%; % inhibition apPOL 180' (DRC-1, concentration 10): 45.9729%; % inhibition apPOL 180' (DRC-1, concentration 20): 50.6657%; % inhibition apPOL 180' (DRC-1, concentration 40): 53.135%; % inhibition apPOL 180' (DRC-1, concentration 80): 64.4119%; % inhibition Apo pol 5' (DRC-2, concentration 2.5): 2.6%; % inhibition Apo pol 5' (DRC-2, concentration 5): 10%; % inhibition Apo pol 5' (DRC-2, concentration 10): 29%; % inhibition Apo pol 5' (DRC-2, concentration 20): 45%; % inhibition Apo pol 5' (DRC-2, concentration 40): 49%; % inhibition Apo pol 5' (DRC-2, concentration 80): 51%; % inhibition Apol 40' (DRC-2, concentration 2.5): 2%; % inhibition Apol 40' (DRC-2, concentration 5): 13%; % inhibition Apol 40' (DRC-2, concentration 10): 35%; % inhibition Apol 40' (DRC-2, concentration 20): 54%; % inhibition Apol 40' (DRC-2, concentration 40): 58%; % inhibition Apol 40' (DRC-2, concentration 80): 62%; % inhibition ApPOL 90' (DRC-2, concentration 2.5): 0.656%; % inhibition ApPOL 90' (DRC-2, concentration 5): 13%; % inhibition ApPOL 90' (DRC-2, concentration 10): 36%; % inhibition ApPOL 90' (DRC-2, concentration 20): 54%; % inhibition ApPOL 90' (DRC-2, concentration 40): 60%; % inhibition ApPOL 90' (DRC-2, concentration 80): 64%; % inhibition apPOL 180' (DRC-2, concentration 2.5): -2.65%; % inhibition apPOL 180' (DRC-2, concentration 5): 7.39%; % inhibition apPOL 180' (DRC-2, concentration 10): 30%; % inhibition apPOL 180' (DRC-2, concentration 20): 48%; % inhibition apPOL 180' (DRC-2, concentration 40): 55%; % inhibition apPOL 180' (DRC-2, concentration 80): 62%

**Q.** How did the “DNA Pol” value [1] turn out when `COc1ccc(C(=O)N2CCc3c(nc4cc(-c5ccccc5Cl)[nH]n4c3=O)C2)cn1` [Molecule 26, COc1ccc(cn1)C(=O)N1CCc2c(C1)nc1n(c2=O)[nH]c(c1)c1ccccc1Cl] was run?
**A.** 36

**Q.** And the “DNA Pol” value (DNA Pol (primary screen value))?
**A.** 36

**Q.** And the “% inhibition Apo pol 10'” value (DRC-1, concentration 2.5)?
**A.** 0.687%

**Q.** What about the “% inhibition Apo pol 10'” value (DRC-1, concentration 5) of the same compound?
**A.** 20%

**Q.** And the “% inhibition Apo pol 10'” value (DRC-1, concentration 10)?
**A.** 48%

**Q.** What about the “% inhibition Apo pol 10'” value (DRC-1, concentration 20) of the same compound?
**A.** 85%

**Q.** What about the “% inhibition Apo pol 10'” value (DRC-1, concentration 40) of the same compound?
**A.** 91%

**Q.** What about the “% inhibition Apo pol 10'” value (DRC-1, concentration 80) of the same compound?
**A.** 87%

**Q.** And the “% inhibition Apol 90'” value (DRC-1, concentration 2.5)?
**A.** -2.83%

**Q.** What about the “% inhibition Apol 90'” value (DRC-1, concentration 5) of the same compound?
**A.** 11%

**Q.** And the “% inhibition Apol 90'” value (DRC-1, concentration 10)?
**A.** 33%

**Q.** What about the “% inhibition Apol 90'” value (DRC-1, concentration 20) of the same compound?
**A.** 74%

**Q.** What about the “% inhibition Apol 90'” value (DRC-1, concentration 40) of the same compound?
**A.** 82%

**Q.** And the “% inhibition Apol 90'” value (DRC-1, concentration 80)?
**A.** 82%

**Q.** And the “% inhibition apPOL 180'” value (DRC-1, concentration 2.5)?
**A.** -5.33%

**Q.** What about the “% inhibition apPOL 180'” value (DRC-1, concentration 5) of the same compound?
**A.** 3.47%

**Q.** What about the “% inhibition apPOL 180'” value (DRC-1, concentration 10) of the same compound?
**A.** 20%

**Q.** What about the “% inhibition apPOL 180'” value (DRC-1, concentration 20) of the same compound?
**A.** 60%

**Q.** And the “% inhibition apPOL 180'” value (DRC-1, concentration 40)?
**A.** 70%

**Q.** What about the “% inhibition apPOL 180'” value (DRC-1, concentration 80) of the same compound?
**A.** 71%

**Q.** And the “% inhibition Apo pol 5'” value (DRC-2, concentration 2.5)?
**A.** 7%

**Q.** And the “% inhibition Apo pol 5'” value (DRC-2, concentration 5)?
**A.** 7%

**Q.** What about the “% inhibition Apo pol 5'” value (DRC-2, concentration 10) of the same compound?
**A.** 28%

**Q.** And the “% inhibition Apo pol 5'” value (DRC-2, concentration 20)?
**A.** 47%

**Q.** And the “% inhibition Apo pol 5'” value (DRC-2, concentration 40)?
**A.** 54%

**Q.** And the “% inhibition Apo pol 5'” value (DRC-2, concentration 80)?
**A.** 47%

**Q.** And the “% inhibition Apol 40'” value (DRC-2, concentration 2.5)?
**A.** 6.48%

**Q.** And the “% inhibition Apol 40'” value (DRC-2, concentration 5)?
**A.** 6.59%

**Q.** And the “% inhibition Apol 40'” value (DRC-2, concentration 10)?
**A.** 30%

**Q.** And the “% inhibition Apol 40'” value (DRC-2, concentration 20)?
**A.** 56%

**Q.** What about the “% inhibition Apol 40'” value (DRC-2, concentration 40) of the same compound?
**A.** 64%

**Q.** What about the “% inhibition Apol 40'” value (DRC-2, concentration 80) of the same compound?
**A.** 62%

**Q.** And the “% inhibition ApPOL 90'” value (DRC-2, concentration 2.5)?
**A.** 6%

**Q.** What about the “% inhibition ApPOL 90'” value (DRC-2, concentration 5) of the same compound?
**A.** 4.56%

**Q.** And the “% inhibition ApPOL 90'” value (DRC-2, concentration 10)?
**A.** 28%

**Q.** And the “% inhibition ApPOL 90'” value (DRC-2, concentration 20)?
**A.** 56%

**Q.** What about the “% inhibition ApPOL 90'” value (DRC-2, concentration 40) of the same compound?
**A.** 63%

**Q.** And the “% inhibition ApPOL 90'” value (DRC-2, concentration 80)?
**A.** 63%

**Q.** And the “% inhibition apPOL 180'” value (DRC-2, concentration 2.5)?
**A.** 3.22%

**Q.** And the “% inhibition apPOL 180'” value (DRC-2, concentration 5)?
**A.** 3%

**Q.** And the “% inhibition apPOL 180'” value (DRC-2, concentration 10)?
**A.** 20%

**Q.** What about the “% inhibition apPOL 180'” value (DRC-2, concentration 20) of the same compound?
**A.** 48%

**Q.** And the “% inhibition apPOL 180'” value (DRC-2, concentration 40)?
**A.** 55%

**Q.** What about the “% inhibition apPOL 180'” value (DRC-2, concentration 80) of the same compound?
**A.** 57%

**Q.** What about the “% inhibition Apo pol 10'” value (first dose-response set, concentration 5) of the same compound?
**A.** 20%

**Q.** What about the “% inhibition Apo pol 10'” value [2] of the same compound?
**A.** 48%

**Q.** What about the “% inhibition Apol 90'” value (first dose-response set, concentration 40) of the same compound?
**A.** 82%

**Q.** What about the “% inhibition Apol 90'” value (first dose-response set, concentration 80) of the same compound?
**A.** 82%

**Q.** What about the “% inhibition apPOL 180'” value [2] of the same compound?
**A.** 20%
